System: Human chondrocytes
Assay: Telomere length in chondrocytes, relative quantification for the telomeric repeat (T/S-ratio)
Assay type: cell-based
Conditions: LFA transfection, n=3, P65i high

## RelA/NFkB p65 [pSer529, pSer536] inhibitor peptide [P65i]
  % increase in TL: 4.0%
  T/S-ratio: 1.01

From patent publication US20180360924A1, “TELOMERE EXTENSION AND ANTI-INFLAMMATORY AGENTS FOR CELL REGENERATION” (THE METHODIST HOSPITAL SYSTEM, priority 2015, published 2018)
